Measurements: the supplement of paper PMC10307832

Tests used:
Assay in all cases: relative viability (nuclei count vs DMSO), 5 days (fraction); higher = more cells survive
HCC-366 = test system: HCC-366
Procedure, shortened: (§1)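 A single step with final 0.05% Triton X-100, 1% formaldehyde and 1 ug/ml Hoechst fixed the cells and stained nuclei 5 days after treatment. Lung cancer cell lines in 1536-well plates had been treated by pin tool the day after seeding with one drug alone or a fixed anchor-drug dose plus five library-drug doses (not always all listed) in √10 steps, and nuclei were counted on 4× images. Relative viability is the ratio of nuclei in treated wells to nuclei in vehicle wells, taken as the median of duplicate plates.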

NCI-H23 = test system: NCI-H23
Procedure, shortened: as §1

ChaGo-K-1 = test system: ChaGo-K-1
Procedure, shortened: as §1

NCI-H2228 = test system: NCI-H2228
Procedure, shortened: as §1

NCI-H1944 = test system: NCI-H1944
Procedure, shortened: as §1

NCI-H1993 = test system: NCI-H1993
Procedure, shortened: as §1

NCI-H1793 = test system: NCI-H1793
Procedure, shortened: as §1

EMC-BAC-2 = test system: EMC-BAC-2
Procedure, shortened: as §1

NCI-H1734 = test system: NCI-H1734
Procedure, shortened: as §1

NCI-H2009 = test system: NCI-H2009
Procedure, shortened: as §1

HCC-78 = test system: HCC-78
Procedure, shortened: as §1

NCI-H2126 = test system: NCI-H2126
Procedure, shortened: as §1

NCI-H2405 = test system: NCI-H2405
Procedure, shortened: as §1

SK-LU-1 = test system: SK-LU-1
Procedure, shortened: as §1

COR-L23 = test system: COR-L23
Procedure, shortened: as §1

UMC-11 = test system: UMC-11
Procedure, shortened: as §1

NCI-H2023 = test system: NCI-H2023
Procedure, shortened: as §1

NCI-H838 = test system: NCI-H838
Procedure, shortened: as §1

LC-2-ad = test system: LC-2-ad
Procedure, shortened: as §1

HCC-15 = test system: HCC-15
Procedure, shortened: as §1

HARA = test system: HARA
Procedure, shortened: as §1

A-427 = test system: A-427
Procedure, shortened: as §1

CC1(C)CCC(c2ccc(Cl)cc2)=C(CN2CCN(c3ccc(C(=O)NS(=O)(=O)c4ccc(N[C@H](CCN5CCOCC5)CSc5ccccc5)c(S(=O)(=O)C(F)(F)F)c4)cc3)CC2)C1 [Navitoclax] + Nc1nc2[nH]cc(CCc3ccc(C(=O)N[C@@H](CCC(=O)O)C(=O)O)cc3)c2c(=O)[nH]1 [Pemetrexed] (partner 0.2 µM)
relative viability (HCC-366; first compound 0.005 µM): 0.136 | relative viability (HCC-366; first compound 0.01581 µM): 0.167 | relative viability (HCC-366; first compound 0.1581 µM): 0.175 | relative viability (HCC-366; first compound 0.5 µM): 0.145 | relative viability (NCI-H23; first compound 0.005 µM): 0.594 | relative viability (NCI-H23; first compound 0.01581 µM): 0.665 | relative viability (NCI-H23; first compound 0.05 µM): 0.707 | relative viability (NCI-H23; first compound 0.1581 µM): 0.603 | relative viability (NCI-H23; first compound 0.5 µM): 0.645 | relative viability (ChaGo-K-1; first compound 0.005 µM): 0.258 | relative viability (ChaGo-K-1; first compound 0.01581 µM): 0.26 | relative viability (ChaGo-K-1; first compound 0.05 µM): 0.25 | relative viability (ChaGo-K-1; first compound 0.1581 µM): 0.268 | relative viability (ChaGo-K-1; first compound 0.5 µM): 0.265 | relative viability (NCI-H2228; first compound 0.005 µM): 0.314 | relative viability (NCI-H2228; first compound 0.01581 µM): 0.306 | relative viability (NCI-H2228; first compound 0.1581 µM): 0.336 | relative viability (NCI-H2228; first compound 0.5 µM): 0.31 | relative viability (NCI-H1944; first compound 0.005 µM): 0.611 | relative viability (NCI-H1944; first compound 0.01581 µM): 0.623 | relative viability (NCI-H1944; first compound 0.1581 µM): 0.597 | relative viability (NCI-H1944; first compound 0.5 µM): 0.534 | relative viability (NCI-H1993; first compound 0.005 µM): 0.616 | relative viability (NCI-H1993; first compound 0.01581 µM): 0.701 | relative viability (NCI-H1993; first compound 0.05 µM): 0.474 | relative viability (NCI-H1993; first compound 0.1581 µM): 0.653 | relative viability (NCI-H1993; first compound 0.5 µM): 0.677 | relative viability (NCI-H1793; first compound 0.005 µM): 0.72 | relative viability (NCI-H1793; first compound 0.01581 µM): 1.09 | relative viability (NCI-H1793; first compound 0.1581 µM): 0.828 | relative viability (NCI-H1793; first compound 0.5 µM): 0.643 | relative viability (EMC-BAC-2; first compound 0.005 µM): 0.433 | relative viability (EMC-BAC-2; first compound 0.01581 µM): 0.437 | relative viability (EMC-BAC-2; first compound 0.05 µM): 0.408 | relative viability (EMC-BAC-2; first compound 0.1581 µM): 0.423 | relative viability (EMC-BAC-2; first compound 0.5 µM): 0.419 | relative viability (NCI-H1734; first compound 0.005 µM): 0.394 | relative viability (NCI-H1734; first compound 0.01581 µM): 0.421 | relative viability (NCI-H1734; first compound 0.1581 µM): 0.367 | relative viability (NCI-H1734; first compound 0.5 µM): 0.381 | relative viability (NCI-H2009; first compound 0.005 µM): 0.997 | relative viability (NCI-H2009; first compound 0.01581 µM): 1.03 | relative viability (NCI-H2009; first compound 0.05 µM): 1.03 | relative viability (NCI-H2009; first compound 0.1581 µM): 1.04 | relative viability (NCI-H2009; first compound 0.5 µM): 1.01 | relative viability (HCC-78; first compound 0.005 µM): 0.867 | relative viability (HCC-78; first compound 0.01581 µM): 0.878 | relative viability (HCC-78; first compound 0.05 µM): 0.921 | relative viability (HCC-78; first compound 0.1581 µM): 0.875 | relative viability (HCC-78; first compound 0.5 µM): 0.777 | relative viability (NCI-H2126; first compound 0.005 µM): 0.667 | relative viability (NCI-H2126; first compound 0.01581 µM): 0.696 | relative viability (NCI-H2126; first compound 0.05 µM): 0.671 | relative viability (NCI-H2126; first compound 0.1581 µM): 0.602 | relative viability (NCI-H2126; first compound 0.5 µM): 0.624 | relative viability (NCI-H2405; first compound 0.005 µM): 1.02 | relative viability (NCI-H2405; first compound 0.01581 µM): 1.07 | relative viability (NCI-H2405; first compound 0.05 µM): 1.11 | relative viability (NCI-H2405; first compound 0.1581 µM): 0.994 | relative viability (NCI-H2405; first compound 0.5 µM): 0.896 | relative viability (SK-LU-1; first compound 0.005 µM): 0.945 | relative viability (SK-LU-1; first compound 0.01581 µM): 1.01 | relative viability (SK-LU-1; first compound 0.05 µM): 0.967 | relative viability (SK-LU-1; first compound 0.1581 µM): 0.947 | relative viability (SK-LU-1; first compound 0.5 µM): 0.819 | relative viability (COR-L23; first compound 0.005 µM): 0.208 | relative viability (COR-L23; first compound 0.01581 µM): 0.188 | relative viability (COR-L23; first compound 0.05 µM): 0.221 | relative viability (COR-L23; first compound 0.1581 µM): 0.179 | relative viability (COR-L23; first compound 0.5 µM): 0.201 | relative viability (UMC-11; first compound 0.005 µM): 0.79 | relative viability (UMC-11; first compound 0.01581 µM): 0.822 | relative viability (UMC-11; first compound 0.05 µM): 0.821 | relative viability (UMC-11; first compound 0.1581 µM): 0.759 | relative viability (UMC-11; first compound 0.5 µM): 0.444 | relative viability (NCI-H2023; first compound 0.005 µM): 0.229 | relative viability (NCI-H2023; first compound 0.01581 µM): 0.236 | relative viability (NCI-H2023; first compound 0.05 µM): 0.258 | relative viability (NCI-H2023; first compound 0.1581 µM): 0.214 | relative viability (NCI-H2023; first compound 0.5 µM): 0.201 | relative viability (NCI-H838; first compound 0.005 µM): 0.242 | relative viability (NCI-H838; first compound 0.01581 µM): 0.254 | relative viability (NCI-H838; first compound 0.05 µM): 0.28 | relative viability (NCI-H838; first compound 0.1581 µM): 0.266 | relative viability (NCI-H838; first compound 0.5 µM): 0.244 | relative viability (LC-2-ad; first compound 0.005 µM): 0.268 | relative viability (LC-2-ad; first compound 0.01581 µM): 0.263 | relative viability (LC-2-ad; first compound 0.05 µM): 0.284 | relative viability (LC-2-ad; first compound 0.1581 µM): 0.295 | relative viability (LC-2-ad; first compound 0.5 µM): 0.275 | relative viability (HCC-15; first compound 0.005 µM): 0.227 | relative viability (HCC-15; first compound 0.01581 µM): 0.26 | relative viability (HCC-15; first compound 0.05 µM): 0.218 | relative viability (HCC-15; first compound 0.1581 µM): 0.228 | relative viability (HCC-15; first compound 0.5 µM): 0.229 | relative viability (HARA; first compound 0.005 µM): 0.189 | relative viability (HARA; first compound 0.01581 µM): 0.232 | relative viability (HARA; first compound 0.05 µM): 0.255 | relative viability (HARA; first compound 0.1581 µM): 0.236 | relative viability (HARA; first compound 0.5 µM): 0.218 | relative viability (A-427; first compound 0.005 µM): 1.01 | relative viability (A-427; first compound 0.01581 µM): 0.896 | relative viability (A-427; first compound 0.05 µM): 0.968 | relative viability (A-427; first compound 0.1581 µM): 1.14 | relative viability (A-427; first compound 0.5 µM): 1.04
